ChEMBL document CHEMBL1138374, “Arylsulfonamides as a new class of cannabinoid CB1 receptor ligands: identification of a lead and initial SAR studies” (Bioorg Med Chem Lett, 2007)

Key:
[1] = molecular target: T1, Cannabinoid receptor 1 (Homo sapiens, UniProt P21554); experiment: Binding affinity to human recombinant CB1 receptor
[2] = molecular target: T1, Cannabinoid receptor 1; experiment: Agonist activity at human recombinant CB1 receptor expressed in CHO cells by [35S]GTP-gamma-S binding assay; format: functional, cell-based
[3] = molecular target: Cannabinoid receptor 1 (Mus musculus) (UniProt P47746); settings: Vas deferens
Description: Agonist activity at CB1 receptor assessed as inhibition of electrically-induced twitch contraction amplitude in mouse vas deferens

[4] = tested on: Mus musculus; experiment: Reduction of nociception in NMRI mouse during early phase (0 to 5 mins) at 80 mg/kg, ip by formalin test; format: functional; design: scale not given: the % may be the effect or the level left; settings: route intraperitoneal
[5] = tested on: Mus musculus; experiment: Reduction of nociception in NMRI mouse during early phase (0 to 5 mins) at 30 mg/kg, ip by formalin test; format: functional; design: scale not given: the % may be the effect or the level left; settings: route intraperitoneal
[6] = organism: Homo sapiens
Description: Selectivity for CB2 receptor over human recombinant CB1 receptor

[7] = tested on: Mus musculus; experiment: Reduction of nociception in NMRI mouse during late phase (10 to 30 mins) at 30 mg/kg, ip by formalin test; format: functional; design: scale not given: the % may be the effect or the level left; settings: route intraperitoneal
[8] = tested on: Mus musculus; experiment: Reduction of nociception in NMRI mouse during early phase (0 to 5 mins) at 10 mg/kg, ip by formalin test; format: functional; design: scale not given: the % may be the effect or the level left; settings: route intraperitoneal
[9] = tested on: Mus musculus; experiment: Reduction of nociception in NMRI mouse during late phase (10 to 30 mins) at 180 mg/kg, ip by formalin test; format: functional; design: scale not given: the % may be the effect or the level left; settings: route intraperitoneal
[10] = molecular target: Cannabinoid receptor 1 (Mus musculus) (UniProt P47746); settings: Vas deferens; 0.1 uM
Description: Agonist activity at CB1 receptor assessed as inhibition of electrically-induced twitch contraction amplitude in mouse vas deferens at 0.1 uM relative to WIN-55212-2

[11] = tested on: Mus musculus; experiment: Reduction of nociception in NMRI mouse during late phase (10 to 30 mins) at 90 mg/kg, ip by formalin test; format: functional; design: scale not given: the % may be the effect or the level left; settings: route intraperitoneal
[12] = molecular target: Cannabinoid receptor 2 (Homo sapiens, UniProt P34972); experiment: Binding affinity to CB2 receptor
[13] = tested on: Mus musculus; experiment: Reduction of nociception in NMRI mouse during late phase (10 to 30 mins) at 10 mg/kg, ip by formalin test; format: functional; design: scale not given: the % may be the effect or the level left; settings: route intraperitoneal
[14] = tested on: Mus musculus; experiment: Induction of hypokinesia with reduced postural tone NMRI mouse at 180 mg/kg, ip; format: organism-based; design: dose 180 mg/kg, route intraperitoneal; settings: in vivo
[15] = tested on: Mus musculus; experiment: Reduction of nociception in NMRI mouse during early phase (0 to 5 mins) at 90 mg/kg, ip by formalin test; format: functional; design: scale not given: the % may be the effect or the level left; settings: route intraperitoneal
[16] = tested on: Mus musculus; experiment: Induction of hypokinesia NMRI mouse at 0.3 mg/kg, ip; format: organism-based; design: dose 0.3 mg/kg, route intraperitoneal; settings: in vivo
[17] = tested on: Mus musculus; experiment: Induction of hypotonia NMRI mouse at 0.3 mg/kg, ip; format: organism-based; design: dose 0.3 mg/kg, route intraperitoneal; settings: in vivo
[18] = tested on: Mus musculus; experiment: Reduction of nociception in ip dosed NMRI mouse during late phase (10 to 30 mins); format: functional

T1 sequence (P21554 whole entry): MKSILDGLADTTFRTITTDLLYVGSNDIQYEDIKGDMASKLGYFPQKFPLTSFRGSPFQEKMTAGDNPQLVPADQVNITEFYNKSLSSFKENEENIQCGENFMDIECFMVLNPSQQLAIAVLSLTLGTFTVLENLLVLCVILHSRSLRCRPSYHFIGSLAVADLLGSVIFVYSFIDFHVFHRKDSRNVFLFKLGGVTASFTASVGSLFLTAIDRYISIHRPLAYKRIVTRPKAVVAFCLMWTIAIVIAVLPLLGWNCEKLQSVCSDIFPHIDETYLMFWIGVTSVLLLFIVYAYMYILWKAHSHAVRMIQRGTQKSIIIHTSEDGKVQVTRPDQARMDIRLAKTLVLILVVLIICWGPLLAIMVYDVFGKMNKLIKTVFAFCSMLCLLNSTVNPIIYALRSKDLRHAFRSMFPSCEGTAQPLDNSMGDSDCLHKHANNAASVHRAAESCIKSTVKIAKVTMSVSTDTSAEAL
Sequence of Cannabinoid receptor 1 (Mus musculus) (P47746 whole entry): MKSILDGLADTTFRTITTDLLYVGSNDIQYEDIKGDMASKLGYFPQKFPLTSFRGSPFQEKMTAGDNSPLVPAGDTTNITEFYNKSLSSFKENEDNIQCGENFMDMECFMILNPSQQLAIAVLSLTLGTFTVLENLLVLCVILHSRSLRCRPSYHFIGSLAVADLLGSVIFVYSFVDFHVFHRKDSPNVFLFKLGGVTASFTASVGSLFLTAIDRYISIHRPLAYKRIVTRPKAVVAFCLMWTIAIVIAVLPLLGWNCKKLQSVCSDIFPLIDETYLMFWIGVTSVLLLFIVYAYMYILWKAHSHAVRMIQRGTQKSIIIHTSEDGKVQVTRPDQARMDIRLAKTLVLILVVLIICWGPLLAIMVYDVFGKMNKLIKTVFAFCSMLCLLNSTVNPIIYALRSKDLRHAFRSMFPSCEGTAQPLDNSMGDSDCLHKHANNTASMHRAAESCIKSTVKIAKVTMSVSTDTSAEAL
Sequence of Cannabinoid receptor 2 (P34972 whole entry): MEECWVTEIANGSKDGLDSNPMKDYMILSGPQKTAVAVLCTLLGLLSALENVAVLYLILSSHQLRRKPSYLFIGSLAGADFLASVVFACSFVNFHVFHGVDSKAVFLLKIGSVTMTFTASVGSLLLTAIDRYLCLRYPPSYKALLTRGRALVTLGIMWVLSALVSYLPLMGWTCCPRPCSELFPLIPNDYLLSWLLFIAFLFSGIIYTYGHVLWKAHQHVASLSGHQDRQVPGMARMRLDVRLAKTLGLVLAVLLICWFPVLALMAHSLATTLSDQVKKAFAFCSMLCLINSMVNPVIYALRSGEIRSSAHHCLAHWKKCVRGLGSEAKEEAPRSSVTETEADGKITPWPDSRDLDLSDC

SMILES | IC50 [1] [µM] | EC50 [2] [µM] | also measured
Cc1ccc(C(=O)Nc2cccc3cnccc23)cc1S(=O)(=O)N1CCCCC1 | 1.26 | 6.31 | 
Cc1ccc(C(=O)O)cc1S(=O)(=O)N1CCCCC1 | > 10 | > 10 | 
COc1ccccc1NC(=O)c1cccc(S(=O)(=O)N2CCCCC2)c1 | > 10 |  | 
O=C(Nc1ccc(Cl)c(S(=O)(=O)N2CCOCC2)c1)c1ccccc1 | 3.98 | 0.631 | 
Cc1ccc(C(=O)Oc2ccccc2Br)cc1S(=O)(=O)N1CCOCC1 | 0.0316 | 0.398 | 
Cc1ccc(C(=O)Nc2cccc(F)c2)cc1S(=O)(=O)N1CCCCC1 | 1.26 | > 10 | 
Nc1cccc(NC(=O)c2cccc(S(=O)(=O)N3CCCCC3)c2)c1 | 5.01 | > 10 | 
O=C(Nc1ccccc1O)c1ccc(Cl)c(S(=O)(=O)N2CCCCCC2)c1 | 0.2 | 1.26 | 
Cc1ccc(C(=O)Oc2cccc3cccnc23)cc1S(=O)(=O)N1CCOCC1 | 0.00126 | 0.0126 | 
O=C(Nc1ccc(Cl)c(S(=O)(=O)N2CCOCC2)c1)c1cccc2ccccc12 | 0.398 | 0.794 | 
Cc1ccc(NC(=O)c2cccc(C#N)c2)cc1S(=O)(=O)N1CCOCC1 | 1.58 | 5.01 | 
Cc1ccc(NC(=O)c2ccccc2Oc2ccccc2)cc1S(=O)(=O)N1CCOCC1 | 2 | > 10 | 
Cc1ccc(C(=O)Oc2cccc3cccnc23)cc1S(=O)(=O)N1CCCCC1 | 0.000794 | 0.01 | pD2 [3]: 6.42; Activity [4]: -54%; Activity [5]: -1%; logSI [6]: 1; Activity [7]: -50%; Activity [8]: -1%; Activity [9]: -59%; inhibition [10]: 87.3%; Activity [11]: -71%; Ki [12]: 0.0251 µM; Activity [13]: -15%; Activity [14]: Toxic; Activity [15]: -53%
COc1ccc(C(=O)Oc2cccc3cccnc23)cc1S(=O)(=O)N1CCOCC1 | 0.0398 | 0.398 | 
O=C(Nc1ccc(Cl)c(S(=O)(=O)N2CCOCC2)c1)c1ccccc1Cl | 1.58 | > 10 | 
Cc1ccc(NC(=O)c2ccc(C)c(S(=O)(=O)N3CCCCC3)c2)cc1 | 7.94 | > 10 | 
COc1ccccc1OC(=O)c1ccc(C)c(S(=O)(=O)N2CCOCC2)c1 | 3.16 | 0.0631 | 
Cc1ccc(C(=O)Nc2ccccc2)cc1S(=O)(=O)N1CCCC1 | 6.31 | > 10 | 
Cc1ccc(NC(=O)c2ccc(C)c(S(=O)(=O)N3CCCCC3)c2)nc1 | 3.16 | > 10 | 
Cc1ccc(C(=O)Nc2ccccc2)cc1S(=O)(=O)N1CCCCC1 | 3.16 | > 10 | 
O=C(Oc1cccc2cccnc12)c1cccc(S(=O)(=O)N2CCCCCC2)c1 | 0.0501 | 0.2 | 
O=C(Oc1cccc2cccnc12)c1cccc(S(=O)(=O)N2CCCC2)c1 | 0.158 | 0.631 | 
Cc1c(C(=O)c2cccc3ccccc23)c2cccc3c2n1[C@H](CN1CCOCC1)CO3 [WIN-552122] |  |  | Activity [16]: Toxic; Activity [17]: Toxic; ED50 [18]: 0.21 mg/kg
O=C(Oc1cccc2cccnc12)c1cccc(S(=O)(=O)N2CCCCC2)c1 | 0.0158 | 0.0501 | 
